Source: patent US20200361871A1 (Enterprise Therapeutics Ltd., priority 2018, published 2020)

Target: human TMEM16A (TMEM16Aabc variant) (Homo sapiens, UniProt Q5XXA6, DEL476-501, form not given)
Assay: Automated whole-cell patch clamp (Qpatch) TMEM16A potentiator assay in FRT cells stably expressing human TMEM16A
Assay type: cell-based
Conditions: for % Potentiation @ 3.33 μM Avg: 3.33 μM solution of test compound, percentage increase of baseline TMEM16A current; for EC50: calculated EC50, Qpatch TMEM16A current at +70 mV
How it was run: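 Potentiation was read as the rise in peak +70 mV current over baseline (%), from cumulative 5-min additions of compound. Recordings used whole-cell automated patch of FRT cells stably carrying human TMEM16Aabc, with pipette Ca2+ buffered to give ~20% maximal current. EC50 and efficacy came from concentration-response fits.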

Chain of human TMEM16A (TMEM16Aabc variant) (Q5XXA6 with tags, fused parts or gaps DEL476-501): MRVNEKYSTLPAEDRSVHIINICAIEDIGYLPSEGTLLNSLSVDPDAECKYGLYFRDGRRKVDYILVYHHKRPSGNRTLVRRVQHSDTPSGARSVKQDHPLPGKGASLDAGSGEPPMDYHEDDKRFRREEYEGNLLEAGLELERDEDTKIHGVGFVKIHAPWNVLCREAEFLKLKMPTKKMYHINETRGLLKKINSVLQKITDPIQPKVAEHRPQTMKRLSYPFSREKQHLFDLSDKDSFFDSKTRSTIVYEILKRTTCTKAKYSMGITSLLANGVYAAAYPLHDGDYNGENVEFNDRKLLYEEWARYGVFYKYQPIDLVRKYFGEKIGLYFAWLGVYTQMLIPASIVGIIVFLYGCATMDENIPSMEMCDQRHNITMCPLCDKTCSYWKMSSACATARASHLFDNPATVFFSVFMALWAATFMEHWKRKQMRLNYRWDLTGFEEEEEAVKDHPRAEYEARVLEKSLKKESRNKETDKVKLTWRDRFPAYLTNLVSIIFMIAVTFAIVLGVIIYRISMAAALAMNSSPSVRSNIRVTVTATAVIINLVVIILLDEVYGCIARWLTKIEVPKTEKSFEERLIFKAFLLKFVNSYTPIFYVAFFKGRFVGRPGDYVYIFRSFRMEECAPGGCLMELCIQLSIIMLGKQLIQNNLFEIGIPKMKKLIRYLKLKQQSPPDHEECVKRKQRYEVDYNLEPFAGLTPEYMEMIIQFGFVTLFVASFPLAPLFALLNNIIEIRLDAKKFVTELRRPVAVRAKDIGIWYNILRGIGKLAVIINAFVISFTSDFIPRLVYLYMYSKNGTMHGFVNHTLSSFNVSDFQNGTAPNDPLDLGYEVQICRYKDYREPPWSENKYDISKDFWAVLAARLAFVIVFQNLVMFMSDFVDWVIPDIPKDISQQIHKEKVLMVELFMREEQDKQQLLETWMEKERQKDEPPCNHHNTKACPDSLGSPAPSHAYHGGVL

| Compound | % Potentiation @ 3.33 μM Avg [%] | EC50 [µM] |
| --- | --- | --- |
| CC(C)(C)C(C)(C)NC(=O)c1cccc(NC(=O)Cc2cc(Cl)ccc2O)c1 [Example 7, 3-[[2-(5-Chloro-2-hydroxy-phenyl)acetyl]amino]-N-(1,1,2,2-tetramethylpropyl) benzamide] | 153 | 0.65 |
| O=C(Cc1cc(F)ccc1O)Nc1ccnc(C(=O)NC2(CO)CCOC2)c1 (stereo not drawn) [Example 72, 4-[[2-(5-Fluoro-2-hydroxy-phenyl)acetyl]amino]-N-[3-(hydroxymethyl)tetrahydrofuran-3-yl]pyridine-2-carboxamide] | 53 |  |
| CC(C)(O)C(C)(C)NC(=O)c1cc(NC(=O)Cc2cc(Cl)ccc2O)ccn1 [Example 7.14, 4-[[2-(5-Chloro-2-hydroxy-phenyl)acetyl]amino]-N-(2-hydroxy-1,1,2-trimethyl-propyl)pyridine-2-carboxamide] | 225 | 0.15 |
| COCC(C#N)(COC)NC(=O)c1cc(NC(=O)Cc2cc(Cl)ccc2O)ccn1 [Example 86, 4-[[2-(5-Chloro-2-hydroxy-phenyl)acetyl]amino]-N-[1-cyano-2-methoxy-1-(methoxymethyl)ethyl]pyridine-2-carboxamide] | 593 | 0.35 |
| COCc1cccc(CC(=O)Nc2ccnc(C(=O)NC(C)(C)C)c2)c1 [Example 69, N-tert-Butyl-4-[[2-[3-(methoxymethyl)phenyl]acetyl]amino]pyridine-2-carboxamide] | 47 |  |
| COCC(C)(C#N)NC(=O)c1cc(NC(=O)Cc2cc(Cl)ccc2O)ccn1 (stereo not drawn) [Example 35.27, 4-[[2-(5-Chloro-2-hydroxy-phenyl)acetyl]amino]-N-(1-cyano-2-methoxy-1-methyl-ethyl)pyridine-2-carboxamide] | 496 | 0.33 |
| CCn1c(C(=O)Nc2ccnc(C(=O)NC(C)(C)C#N)c2)cc2ccccc21 [Example 83.18, N-[2-[(1-Cyano-1-methyl-ethyl)carbamoyl]-4-pyridyl]-1-ethyl-indole-2-carboxamide] | 16 |  |
| CC(C)(C)NC(=O)c1cccc(NC(=O)Cc2cccc(O)c2O)c1 [Example 2.16, N-tert-Butyl-3-[[2-(2,3-dihydroxyphenyl)acetyl]amino]benzamide] | 60 | 4.27 |
| C#CC(C)(C)NC(=O)c1cc(NC(=O)CC2CCCC2)ccn1 [Example 22.2, 4-[(2-Cyclopentylacetyl)amino]-N-(1,1-dimethylprop-2-ynyl)pyridine-2-carboxamide] | 157 | 0.26 |
| O=C(Cc1cc(Cl)ccc1O)Nc1ccnc(C(=O)NC2(CO)CCOC2)c1 (racemic) [Example 35, 4-[[2-(5-Chloro-2-hydroxy-phenyl)acetyl]amino]-N-[3-(hydroxymethyl)tetrahydrofuran-3-yl]pyridine-2-carboxamide] | 180 | 0.19 |
| CC1(NC(=O)c2cccc(NC(=O)Cc3cc(Cl)ccc3O)c2)CCN(C(=O)OC(C)(C)C)CC1 [Example 8.2, tert-Butyl 4-[[3-[[2-(5-chloro-2-hydroxy-phenyl)acetyl]amino]benzoyl]amino]-4-methyl-piperidine-1-carboxylate] | 169 | 1.96 |
| CC(C)(C#N)NC(=O)c1cc(NC(=O)c2ccsc2)ccn1 [Example 83, N-(1-Cyano-1-methyl-ethyl)-4-(thiophene-3-carbonylamino)pyridine-2-carboxamide] | 6 |  |
| Cc1nc(-c2ccccc2)sc1C(=O)Nc1ccnc(C(=O)NC(C)(C)C#N)c1 [Example 83.28, N-[2-[(1-Cyano-1-methyl-ethyl)carbamoyl]-4-pyridyl]-4-methyl-2-phenyl-thiazole-5-carboxamide] | 20 |  |
| CC(C)(C#N)NC(=O)c1cc(NC(=O)Cc2ccc(Cl)c(O)c2)ccn1 [Example 92.1, 4-[[2-(4-Chloro-3-hydroxy-phenyl)acetyl]amino]-N-(1-cyano-1-methyl-ethyl)pyridine-2-carboxamide] | 151 | 0.14 |
| Cc1[nH]c2c(F)cccc2c1CC(=O)Nc1cccc(C(=O)NC(C)(C)C)c1 [Example 4.4, N-tert-Butyl-3-[[2-(7-fluoro-2-methyl-1H-indol-3-yl)acetyl]amino]benzamide] | 61 | 4.19 |
| CC(C)(C)c1ccc(CC(=O)Nc2ccnc(C(=O)NC3(C#N)CCOCC3)c2)cc1O [Example 93.3, 4-[[2-(4-tert-Butyl-3-hydroxy-phenyl)acetyl]amino]-N-(4-cyanotetrahydropyran-4-yl)pyridine-2-carboxamide] | 130 | 0.06 |
| O=C(Cc1cc(Cl)ccc1O)Nc1ccnc(C(=O)NC2CCCC(O)C2)c1 (stereo not drawn) [Example 35.6, 4-[[2-(5-Chloro-2-hydroxy-phenyl)acetyl]amino]-N-(3-hydroxycyclohexyl)pyridine-2-carboxamide] | 53 |  |

| Compound | % Potentiation @ 3.33 μM Avg [%] | EC50 [µM] |
| --- | --- | --- |
| CC(C)(C#N)NC(=O)c1cc(NC(=O)Cc2cc(Cl)ccc2O)ccn1 [Example 34, 4-[[2-(5-Chloro-2-hydroxy-phenyl)acetyl]amino]-N-(1-cyano-1-methyl-ethyl)pyridine-2-carboxamide] | 245 | 0.09 |
| CC(C)(C)NC(=O)c1cc(NC(=O)Cc2ccccc2F)ccn1 [Example 5.12, N-tert-Butyl-4-[[2-(2-fluorophenyl)acetyl]amino]pyridine-2-carboxamide] | 100 | 0.76 |
| CC(C)(C)NC(=O)c1cc(NC(=O)NCc2ccccc2O)ccn1 [Example 65.2, N-tert-Butyl-4-[(2-hydroxyphenyl)methylcarbamoylamino]pyridine-2-carboxamide] | 73 | 0.48 |
| CC(C)(C)NC(=O)c1cc(NC(=O)Cc2ccccc2C2CC2)ccn1 [Example 58, N-tert-Butyl-4-[[2-(2-cyclopropylphenyl)acetyl]amino]pyridine-2-carboxamide] | 217 |  |
| CC1(NC(=O)c2cc(NC(=O)Cc3cc(Cl)ccc3O)ccn2)CCC1 [Example 1.6, 4-[[2-(5-Chloro-2-hydroxy-phenyl)acetyl]amino]-N-(1-methylcyclobutyl)pyridine-2-carboxamide] | 255 | 0.06 |
| CC(C)(C)NC(=O)c1cc(NC(=O)Cc2ccc(F)cc2O)ccn1 [Example 3.2a, N-tert-Butyl-4-[[2-(4-fluoro-2-hydroxy-phenyl)acetyl]amino]pyridine-2-carboxamide] | 116 | 0.16 |
| CC(CO)(CO)NC(=O)c1cc(NC(=O)Cc2cc(Cl)ccc2O)ccn1 [Example 35.4, 4-[[2-(5-Chloro-2-hydroxy-phenyl)acetyl]amino]-N-[2-hydroxy-1-(hydroxymethyl)-1-methyl-ethyl]pyridine-2-carboxamide] | 138 |  |
| CC(C)(C)NC(=O)c1cc(NC(=O)C2CCc3cccc(O)c32)ccn1 (stereo not drawn) [Example 3.10b, N-tert-Butyl-4-[(7-hydroxyindane-1-carbonyl)amino]pyridine-2-carboxamide] | 159 | 0.46 |
| C#CC(C)(C)NC(=O)c1cc(NC(=O)Cc2c(C)nn(C(C)C)c2C)ccn1 [Example 79.1, N-(1,1-Dimethylprop-2-ynyl)-4-[[2-(1-isopropyl-3,5-dimethyl-pyrazol-4-yl)acetyl]amino]pyridine-2-carboxamide] | 45 |  |
| CC(C)(C)NC(=O)c1cc(NC(=O)Cc2cc(Cl)c(CN3CCOCC3)cc2O)ccn1 [Example 27.2, N-tert-Butyl-4-[[2-[5-chloro-2-hydroxy-4-(morpholinomethyl)phenyl]acetyl]amino]pyridine-2-carboxamide] | 300 |  |
| O=C(Cc1ccccc1Cl)Nc1ccnc(C(=O)NC2CC2(F)F)c1 (stereo not drawn) [Example 30.6, 4-[[2-(2-Chlorophenyl)acetyl]amino]-N-(2,2-difluorocyclopropyl)pyridine-2-carboxamide] | 80 |  |
| CC(C)(C#N)NC(=O)c1cc(NC(=O)c2ccnn2CC(F)(F)F)ccn1 [Example 83.19, N-(1-Cyano-1-methyl-ethyl)-4-[[2-(2,2,2-trifluoroethyl)pyrazole-3-carbonyl]amino]pyridine-2-carboxamide] | 28 |  |
| CC(C)(C#N)NC(=O)c1cc(NC(=O)c2cnn(Cc3ccccc3)c2)ccn1 [Example 83.21, 4-[(1-Benzylpyrazole-4-carbonyl)amino]-N-(1-cyano-1-methyl-ethyl)pyridine-2-carboxamide] | 70 |  |
| Cc1cc(C(=O)Nc2ccnc(C(=O)NC(C)(C)C#N)c2)c(C)n1Cc1cccs1 [Example 83.26, N-(1-Cyano-1-methyl-ethyl)-4-[[2,5-dimethyl-1-(2-thienylmethyl)pyrrole-3-carbonyl]amino]pyridine-2-carboxamide] | 95 |  |
| CC1(NC(=O)c2cc(NC(=O)Cc3cc(F)ccc3O)ccn2)CCC1 [Example 48, 4-[[2-(5-Fluoro-2-hydroxy-phenyl)acetyl]amino]-N-(1-methylcyclobutyl)pyridine-2-carboxamide] | 195 | 0.1 |
| CC(NCC(F)(F)F)c1ccc(O)c(CC(=O)Nc2ccnc(C(=O)NC(C)(C)C)c2)c1 (stereo not drawn) [Example 67, N-tert-Butyl-4-[[2-[2-hydroxy-5-[1-(2,2,2-trifluoroethylamino)ethyl]phenyl]acetyl]amino]pyridine-2-carboxamide] | 158 | 1.1 |
| CC(C)(NC(=O)c1cc(NC(=O)Cc2ccccc2Cl)ccn1)C(F)F [Example 30.13, 4-[[2-(2-Chlorophenyl)acetyl]amino]-N-(2,2-difluoro-1,1-dimethyl-ethyl)pyridine-2-carboxamide] | 205 | 0.38 |
